From PubChem BioAssay (NCI)
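Values below derive from 48-hour exposures of cells grown in 96-well plates, with endpoints linearly interpolated between the two concentrations bracketing the appropriate inhibition level. Abbreviation: GI50, concentration required for 50% inhibition of growth. TGI is the concentration that stops growth completely.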

Experiments:
Assay in all cases: inhibition of tumour cell growth, NCI panel, 48 h
HCT-116 colon = system: HCT-116 colon
HCT-15 colon = system: HCT-15 colon
HL-60(TB) leukemia = system: HL-60(TB) leukemia
MDA-MB-231 breast = system: MDA-MB-231 breast
NCI-H23 lung = system: NCI-H23 lung
SK-MEL-5 melanoma = system: SK-MEL-5 melanoma
SNB-75 CNS = system: SNB-75 CNS
T-47D breast = system: T-47D breast
UACC-62 melanoma = system: UACC-62 melanoma
HOP-62 NSCLC = system: HOP-62 NSCLC
IGROV1 ovarian = system: IGROV1 ovarian
M14 melanoma = system: M14 melanoma
MALME-3M melanoma = system: MALME-3M melanoma
SK-OV-3 ovarian = system: SK-OV-3 ovarian

Q: Which results are given for `Nc1c(-c2nc3ccccc3s2)c2ccc([N+](=O)[O-])cc2c(=O)n1-c1cccc(C(=O)O)c1`?
A: TGI (HCT-116 colon): 45.1 µM; TGI (HCT-15 colon): > 100 µM; TGI (HL-60(TB) leukemia): 37.7 µM; TGI (MDA-MB-231 breast): 37.8 µM; TGI (NCI-H23 lung): 92.8 µM; TGI (SK-MEL-5 melanoma): > 100 µM; TGI (SNB-75 CNS): 85.4 µM; TGI (T-47D breast): 64.1 µM; TGI (UACC-62 melanoma): 58.6 µM

Q: For `N#Cc1c(-c2ccco2)cc(-c2ccc(NCc3nc4ccccc4[nH]3)cc2)nc1N`, which TGI (HCT-116 colon) is on record?
A: The TGI was 45.9 µM.

Q: And the TGI (HCT-15 colon)?
A: The TGI was 69.2 µM.

Q: And the TGI (HL-60(TB) leukemia)?
A: The TGI was 47.3 µM.

Q: And the TGI (HOP-62 NSCLC)?
A: The TGI was 62.8 µM.

Q: And the TGI (IGROV1 ovarian)?
A: Its TGI is greater than 100 µM.

Q: What about the TGI (M14 melanoma) of the same compound?
A: The TGI was 35.8 µM.

Q: And the TGI (MALME-3M melanoma)?
A: The TGI was 51.5 µM.

Q: What about the TGI (NCI-H23 lung) of the same compound?
A: Its TGI is 48.8 µM.

Q: And the TGI (SK-MEL-5 melanoma)?
A: The TGI was 29.9 µM.

Q: And the TGI (SK-OV-3 ovarian)?
A: Its TGI is greater than 100 µM.

Q: And the TGI (SNB-75 CNS)?
A: The TGI was 91.6 µM.

Q: What about the TGI (UACC-62 melanoma) of the same compound?
A: The TGI was 45.1 µM.

Q: What does the source list for `CC1=C2c3c(C)ccc4ccc(C)c(c34)C2(O)C(C)C1=O` (centres undefined)?
A: TGI (HCT-116 colon): > 100 µM; TGI (HCT-15 colon): > 100 µM; TGI (HL-60(TB) leukemia): 91.6 µM; TGI (HOP-62 NSCLC): > 100 µM; TGI (IGROV1 ovarian): > 100 µM; TGI (M14 melanoma): > 100 µM; TGI (MDA-MB-231 breast): > 100 µM; TGI (SK-MEL-5 melanoma): > 100 µM; TGI (SK-OV-3 ovarian): > 100 µM; TGI (SNB-75 CNS): > 100 µM; TGI (T-47D breast): > 100 µM; TGI (UACC-62 melanoma): > 100 µM

Q: For `O=C1C(/C=C/c2ccc(Cl)cc2)=NNC2N1N=C1NC(=O)C3(NN12)c1ccccc1-c1ccccc13` (centres undefined), which TGI (HCT-116 colon) is on record?
A: Its TGI is greater than 100 µM.

Q: And the TGI (HCT-15 colon)?
A: The TGI was greater than 100 µM.

Q: And the TGI (HL-60(TB) leukemia)?
A: Its TGI is greater than 100 µM.

Q: What about the TGI (HOP-62 NSCLC) of the same compound?
A: Its TGI is greater than 100 µM.

Q: What about the TGI (IGROV1 ovarian) of the same compound?
A: Its TGI is greater than 100 µM.

Q: What about the TGI (M14 melanoma) of the same compound?
A: Its TGI is greater than 100 µM.

Q: And the TGI (MALME-3M melanoma)?
A: Its TGI is greater than 100 µM.

Q: What about the TGI (MDA-MB-231 breast) of the same compound?
A: The TGI was greater than 100 µM.

Q: And the TGI (NCI-H23 lung)?
A: The TGI was greater than 100 µM.

Q: And the TGI (SK-MEL-5 melanoma)?
A: The TGI was greater than 100 µM.

Q: What about the TGI (SK-OV-3 ovarian) of the same compound?
A: The TGI was greater than 100 µM.

Q: What about the TGI (SNB-75 CNS) of the same compound?
A: The TGI was greater than 100 µM.

Q: And the TGI (UACC-62 melanoma)?
A: The TGI was greater than 100 µM.

Q: How did the TGI (HCT-116 colon) turn out when `O=C1NC(Cc2c[nH]c3ccccc23)C(=O)N2C(C3CCCCC3)c3[nH]c4ccccc4c3C[C@@H]12` (some centres undefined) was run?
A: Its TGI is 22.1 µM.

Q: What about the TGI (HCT-15 colon) of the same compound?
A: The TGI was 35.9 µM.

Q: And the TGI (HL-60(TB) leukemia)?
A: Its TGI is 42.9 µM.

Q: And the TGI (HOP-62 NSCLC)?
A: Its TGI is 44.9 µM.

Q: And the TGI (IGROV1 ovarian)?
A: The TGI was 36.9 µM.

Q: What about the TGI (M14 melanoma) of the same compound?
A: The TGI was 28.9 µM.

Q: What about the TGI (MALME-3M melanoma) of the same compound?
A: The TGI was 28.4 µM.

Q: And the TGI (MDA-MB-231 breast)?
A: Its TGI is 30.6 µM.

Q: What about the TGI (NCI-H23 lung) of the same compound?
A: Its TGI is 51 µM.

Q: And the TGI (SK-MEL-5 melanoma)?
A: Its TGI is 25.4 µM.

Q: What about the TGI (UACC-62 melanoma) of the same compound?
A: Its TGI is 34.5 µM.

Q: With `CCCCn1c(C)c(C(=O)OCC)s/c1=N/Nc1nc2ccccc2nc1-c1ccccc1` as the compound, how does the TGI (HCT-116 colon) read?
A: The TGI was greater than 100 µM.

Q: What about the TGI (HCT-15 colon) of the same compound?
A: The TGI was greater than 100 µM.

Q: What about the TGI (HL-60(TB) leukemia) of the same compound?
A: Its TGI is greater than 100 µM.

Q: And the TGI (HOP-62 NSCLC)?
A: Its TGI is 83.5 µM.

Q: And the TGI (IGROV1 ovarian)?
A: The TGI was greater than 100 µM.

Q: What about the TGI (M14 melanoma) of the same compound?
A: Its TGI is greater than 100 µM.

Q: And the TGI (MDA-MB-231 breast)?
A: Its TGI is greater than 100 µM.

Q: And the TGI (NCI-H23 lung)?
A: The TGI was greater than 100 µM.

Q: And the TGI (SK-MEL-5 melanoma)?
A: The TGI was greater than 100 µM.

Q: What about the TGI (SK-OV-3 ovarian) of the same compound?
A: The TGI was greater than 100 µM.

Q: What about the TGI (SNB-75 CNS) of the same compound?
A: Its TGI is greater than 100 µM.

Q: What about the TGI (T-47D breast) of the same compound?
A: Its TGI is greater than 100 µM.

Q: And the TGI (UACC-62 melanoma)?
A: Its TGI is greater than 100 µM.

Q: How did the TGI (HCT-116 colon) turn out when `CC1(C)CC[C@]2(C)CC=C3[C@]4(C)CC[C@H]5C(C)(C)C(=O)CC[C@]5(C)[C@H]4CC[C@@]3(C)[C@H]2C1` was run?
A: Its TGI is greater than 100 µM.

Q: What about the TGI (HCT-15 colon) of the same compound?
A: The TGI was greater than 100 µM.

Q: What about the TGI (HOP-62 NSCLC) of the same compound?
A: Its TGI is greater than 100 µM.

Q: What about the TGI (IGROV1 ovarian) of the same compound?
A: Its TGI is greater than 100 µM.

Q: And the TGI (M14 melanoma)?
A: The TGI was greater than 100 µM.

Q: What about the TGI (MALME-3M melanoma) of the same compound?
A: The TGI was greater than 100 µM.

Q: And the TGI (MDA-MB-231 breast)?
A: Its TGI is greater than 100 µM.

Q: What about the TGI (NCI-H23 lung) of the same compound?
A: The TGI was greater than 100 µM.

Q: And the TGI (SK-MEL-5 melanoma)?
A: The TGI was greater than 100 µM.

Q: What about the TGI (SK-OV-3 ovarian) of the same compound?
A: Its TGI is greater than 100 µM.

Q: And the TGI (T-47D breast)?
A: The TGI was greater than 100 µM.

Q: And the TGI (UACC-62 melanoma)?
A: The TGI was greater than 100 µM.

Q: `NCCCNc1nc2ccccc2c2c(=O)c3cc(C(F)(F)F)ccc3sc12` was tested. Which GI50 (M14 melanoma) did it give?
A: Its GI50 is 1.64 µM.

Q: What about the TGI (M14 melanoma) of the same compound?
A: The TGI was 3.12 µM.

Q: And the GI50 (MDA-MB-231 breast)?
A: The GI50 was 1.4 µM.

Q: What about the TGI (MDA-MB-231 breast) of the same compound?
A: Its TGI is 2.75 µM.

Q: What about the GI50 (SK-MEL-5 melanoma) of the same compound?
A: Its GI50 is 1.7 µM.

Q: And the TGI (SK-MEL-5 melanoma)?
A: Its TGI is 3.07 µM.

Q: And the GI50 (SNB-75 CNS)?
A: The GI50 was 1.53 µM.

Q: And the TGI (SNB-75 CNS)?
A: The TGI was 2.96 µM.

Q: What about the GI50 (UACC-62 melanoma) of the same compound?
A: Its GI50 is 1.68 µM.

Q: And the TGI (UACC-62 melanoma)?
A: The TGI was 3.09 µM.

Q: With `COc1cc(C2c3cc4c(cc3OC(Nc3ccc(C(=O)O)cc3)C2C)OCO4)cc(OC)c1OC` (centres undefined) as the compound, how does the TGI (HCT-116 colon) read?
A: Its TGI is 12.2 µM.

Q: And the TGI (HCT-15 colon)?
A: Its TGI is greater than 100 µM.

Q: And the TGI (HL-60(TB) leukemia)?
A: The TGI was 0.541 µM.

Q: What about the TGI (HOP-62 NSCLC) of the same compound?
A: Its TGI is greater than 100 µM.

Q: And the TGI (IGROV1 ovarian)?
A: The TGI was greater than 100 µM.

Q: And the TGI (M14 melanoma)?
A: The TGI was 31.8 µM.

Q: And the TGI (MDA-MB-231 breast)?
A: Its TGI is 2.06 µM.

Q: And the TGI (NCI-H23 lung)?
A: Its TGI is greater than 68.7 µM.

Q: What about the TGI (SK-MEL-5 melanoma) of the same compound?
A: Its TGI is 0.522 µM.

Q: What about the TGI (SNB-75 CNS) of the same compound?
A: The TGI was 3.53 µM.

Q: And the TGI (T-47D breast)?
A: The TGI was greater than 100 µM.

Q: What about the TGI (UACC-62 melanoma) of the same compound?
A: The TGI was greater than 61.9 µM.
